Counter-ions that a name gives are not always drawn. Like-named read-outs stand apart in the source and are kept apart here.
Columns and labels:
dopamine D2 = target: T1, dopamine D2 (Rattus norvegicus, UniProt P61169); assay: Receptor Binding Assay, dopamine D2 (3H-spiperone, P2 fraction from striatum); parameters: species or system male, Wistar rats
T1 construct: P2 fraction (synaptosomal membranes) prepared from male, Wistar rats; from tissue; host or cells: rat (Wistar, male) striatum, P2 synaptosomal membranes
T1 sequence (P61169 whole entry): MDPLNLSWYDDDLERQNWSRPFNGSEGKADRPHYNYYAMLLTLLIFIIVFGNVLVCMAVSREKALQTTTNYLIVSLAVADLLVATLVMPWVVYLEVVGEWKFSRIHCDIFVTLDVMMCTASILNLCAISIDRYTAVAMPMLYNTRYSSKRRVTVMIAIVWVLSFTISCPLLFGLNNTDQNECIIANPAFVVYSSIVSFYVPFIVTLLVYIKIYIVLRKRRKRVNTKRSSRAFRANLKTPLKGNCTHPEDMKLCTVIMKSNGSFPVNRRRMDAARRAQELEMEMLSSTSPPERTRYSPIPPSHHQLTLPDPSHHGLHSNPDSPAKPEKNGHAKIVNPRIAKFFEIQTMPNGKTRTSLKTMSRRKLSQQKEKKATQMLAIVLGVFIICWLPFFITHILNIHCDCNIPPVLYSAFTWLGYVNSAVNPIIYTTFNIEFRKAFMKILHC
Method: The dopamine D2 and serotonin 5-HT1A binding activity of compounds was determined using a P2 fraction (synaptosomal membranes) prepared from male, Wistar rats. The D2 assay employed a P2 fraction from the striatum, the ligand ^3 H-spiperone at a concentration of 0.05 nM, and […] haloperidol as a blank determinant. […].
(§1) The data from each assay were analyzed by calculating the percent inhibition of the binding of the tritiated ligands by given concentrations of the test compound. KI values, where given, were obtained from the logit analysis of concentration-inhibition curves.

serotonin 5-HT1A = target: T2, serotonin 5-HT1A (Rattus norvegicus, UniProt P19327); assay: Receptor Binding Assay, serotonin 5-HT1A (3H-8-hydroxy-DPAT, P2 fraction from cerebral cortex); parameters: species or system male, Wistar rats; settings: known drugs, 3H-8-hydroxy-DPAT 3 nM, pH 7.5, 20 min, 25° C., read-out: KI values for some known drugs, 5-HT1A assay
T2 construct: P2 fraction (synaptosomal membranes) prepared from male, Wistar rats; from tissue; host or cells: rat (Wistar, male) cerebral cortex, P2 synaptosomal membranes
T2 sequence (P19327 1-422): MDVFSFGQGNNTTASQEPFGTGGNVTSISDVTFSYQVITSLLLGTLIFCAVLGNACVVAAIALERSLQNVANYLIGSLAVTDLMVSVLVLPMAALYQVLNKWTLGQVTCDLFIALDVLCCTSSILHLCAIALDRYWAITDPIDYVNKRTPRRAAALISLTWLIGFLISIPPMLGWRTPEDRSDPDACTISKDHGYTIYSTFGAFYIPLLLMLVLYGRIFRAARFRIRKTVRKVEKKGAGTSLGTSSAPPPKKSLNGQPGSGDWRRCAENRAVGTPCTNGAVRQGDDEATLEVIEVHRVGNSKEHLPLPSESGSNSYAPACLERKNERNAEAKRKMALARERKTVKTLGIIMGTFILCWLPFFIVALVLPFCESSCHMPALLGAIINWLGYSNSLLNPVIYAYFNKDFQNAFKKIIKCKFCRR
Method: The dopamine D2 and serotonin 5-HT1A binding activity of compounds was determined using a P2 fraction (synaptosomal membranes) prepared from male, Wistar rats.
as §1

[1] = 3H-spiperone 0.05 nM, rat striatum P2 fraction, pH 7.5, 45 min, 37° C., read-out: Receptor Binding, Ki, D-2

O=C(c1cccc(CN2CCc3c([nH]c4ccccc34)C2)c1)N1CCCCC1 [Compound 9, 1-(3-(2-(1,2,3,4-Tetrahydro-9H-pyrido(3,4-b)indolyl)methyl)-benzoyl)piperidine Monooxalate 0.3 Hydrate]
Ki (dopamine D2): 374 nM

O=C(c1cccc(CN2CCN3c4ccccc4OCC3C2)c1)N1CCCCC1 (centres unmarked) [Compound 13, 1-(3-(1-(1,2,3,4,4a,5-hexahydropyrazino(1.2-c)-1,4-benzoxazinyl)methyl)benzoyl)pipridine Sesquioxalate]
Ki (dopamine D2; [1]): > 1000 nM

O=C(c1cccc(CN2CCN3c4ccccc4OCC3C2)c1)N1CCc2ccccc21 (centres unmarked) [Compound 14, 1-(3-(3-(1,2,3,4,4a,5-Hexahydropyrazino(1,2-c)-1,4-benzoxazinyl)methyl)benzoyl)iondoline 1.2 Oxalate]
Ki (dopamine D2; [1]): > 1000 nM

O=C(c1cccc(CN2CCc3c([nH]c4ccccc34)C2)c1)N1CCc2ccccc21 [Compound 11, 1-(3-(2-(1,2,3,4-Tetrahydro-9H-pyrido(3.4-b)indolyl)methyl)benzoyl)indoline Monofumarate]
Ki (dopamine D2): > 1000 nM

Cc1ccc(N(CC2=NCCN2)c2cccc(O)c2)cc1 [phentolamine]
Ki (serotonin 5-HT1A): 59 nM

Reference: US5512566A, “Tricyclic compounds having affinity for the 5-HT1A receptor” (priority 1993, dated 1996)
